According to patent US8969325B2, “TRPV1 antagonists” (AbbVie Inc., priority 2011, dated 2015):
pIC50: −log10 of the molar value.

Tests used:
human TRPV1 [1] = target: T1, human TRPV1 (Homo sapiens (Human), UniProt Q8NER1); assay: Acid Activation Assay (pH 5.0, intracellular Ca2+, FLIPR); format: cell-based; conditions: percentage of the maximal pH 5.0-induced response remaining; recombinant HEK293 hTRPV1 cells; maximum concentration tested 37.5 μM
How it was run: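 Readout: peak [Ca2+]i fluorescence over baseline on FLIPR, expressed as percentage remaining of the maximal pH 5.0-evoked signal. Stable hTRPV1-HEK293 cells with Calcium-4 dye received compound (12 half-log concentrations, maximum 37.5 μM) 3 min before acidic pH 5.0 buffer.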

human TRPV1 [2] = target: T1, human TRPV1; assay: Capsaicin Activation Assay (intracellular Ca2+, FLIPR); format: cell-based; conditions: recombinant HEK293 cells expressing hTRPV1, 50 nM capsaicin
How it was run: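 Ca2+ fluorescence was recorded by FLIPR every 1 to 5 seconds in HEK293 cells, clonally selected for stable human TRPV1 expression and plated one day ahead. Test compounds came as serial dilutions of 10 mM DMSO stocks.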

T1 sequence (Q8NER1 whole entry): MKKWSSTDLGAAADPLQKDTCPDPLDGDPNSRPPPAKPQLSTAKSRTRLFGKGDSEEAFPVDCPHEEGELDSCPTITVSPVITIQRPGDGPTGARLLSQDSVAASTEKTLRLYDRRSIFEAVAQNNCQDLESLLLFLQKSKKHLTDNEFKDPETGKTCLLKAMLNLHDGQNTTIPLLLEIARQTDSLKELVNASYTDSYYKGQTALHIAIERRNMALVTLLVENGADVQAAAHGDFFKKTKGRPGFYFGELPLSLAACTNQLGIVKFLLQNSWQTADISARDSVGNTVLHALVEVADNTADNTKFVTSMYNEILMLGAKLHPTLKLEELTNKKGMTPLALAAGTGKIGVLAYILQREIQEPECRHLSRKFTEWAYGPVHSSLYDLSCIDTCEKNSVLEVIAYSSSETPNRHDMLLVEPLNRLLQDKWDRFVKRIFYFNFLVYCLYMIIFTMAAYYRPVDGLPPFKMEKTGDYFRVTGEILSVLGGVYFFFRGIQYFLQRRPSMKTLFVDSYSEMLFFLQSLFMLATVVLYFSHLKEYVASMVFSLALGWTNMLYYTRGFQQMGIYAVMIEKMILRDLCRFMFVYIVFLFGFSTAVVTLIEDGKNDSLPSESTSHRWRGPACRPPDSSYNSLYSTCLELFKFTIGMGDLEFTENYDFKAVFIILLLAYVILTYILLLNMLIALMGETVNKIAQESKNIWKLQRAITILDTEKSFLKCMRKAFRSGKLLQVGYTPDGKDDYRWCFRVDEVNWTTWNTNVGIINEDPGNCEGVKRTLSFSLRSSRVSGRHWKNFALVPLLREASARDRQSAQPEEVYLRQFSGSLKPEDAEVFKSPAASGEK

Compound	human TRPV1 H^+ (max % remain) (human TRPV1 [1]) [%]	pIC50 (human TRPV1 [2])
CN1C(=O)CCc2ccc(NC(=O)N[C@@H]3C[C@](C)(CF)Oc4cc(C(F)(F)F)ccc43)cc21 [Example 290, 1-[(2R,4R)-2-(fluoromethyl)-2-methyl-7-(trifluoromethyl)-3,4-dihydro-2H-chromen-4-yl]-3-(1-methyl-2-oxo-1,2,3,4-tetrahydroquinolin-7-yl)urea]	68	7.82
CCC1(CC)C[C@@H](NC(=O)Nc2ccc3c(c2)NC(=O)N(C)C3)c2ccc(OC(F)(F)F)cc2O1 [Example 191, 1-[(4R)-2,2-diethyl-7-(trifluoromethoxy)-3,4-dihydro-2H-chromen-4-yl]-3-(3-methyl-2-oxo-1,2,3,4-tetrahydroquinazolin-7-yl)urea]	19	6.35
O=C1COc2ccc(NC(=O)N[C@@H]3CC4(CCC4)Oc4ccc(F)cc43)cc2N1 [Example 108, 1-[(4R)-6-fluoro-3,4-dihydrospiro[chromene-2,1′-cyclobutan]-4-yl]-3-(3-oxo-3,4-dihydro-2H-1,4-benzoxazin-6-yl)urea]	104	6.62
CC1(C)C[C@@H](NC(=O)Nc2ccc3c(c2)NC(=O)C(N2CCCOCC2)C3)c2ccc(F)cc2O1 (stereo partly drawn) [Example 303, 1-[(4R)-7-fluoro-2,2-dimethyl-3,4-dihydro-2H-chromen-4-yl]-3-[3-(1,4-oxazepan-4-yl)-2-oxo-1,2,3,4-tetrahydroquinolin-7-yl]urea]	2	6.21
CCC1(CC)C[C@@H](NC(=O)Nc2ccc3c(c2)NC(=O)N(CCO)C3)c2cc(F)ccc2O1 [Example 50, 1-[(4R)-2,2-diethyl-6-fluoro-3,4-dihydro-2H-chromen-4-yl]-3-[3-(2-hydroxyethyl)-2-oxo-1,2,3,4-tetrahydroquinazolin-7-yl]urea]	0	7.35
CN1Cc2ccc(NC(=O)N[C@@H]3CC(C)(C)Oc4c3cccc4C(F)(F)F)cc2NC1=O [Example 16, 1-[(4R)-2,2-dimethyl-8-(trifluoromethyl)-3,4-dihydro-2H-chromen-4-yl]-3-(3-methyl-2-oxo-1,2,3,4-tetrahydroquinazolin-7-yl)urea]	53	7.00
CN1C(=O)CCc2ccc(NC(=O)N[C@@H]3CC(CF)(CF)Oc4cc(C(F)(F)F)ccc43)cc21 [Example 263, 1-[(4R)-2,2-bis(fluoromethyl)-7-(trifluoromethyl)-3,4-dihydro-2H-chromen-4-yl]-3-(1-methyl-2-oxo-1,2,3,4-tetrahydroquinolin-7-yl)urea]	51	6.30
CN1C(=O)NCc2c(NC(=O)N[C@@H]3C[C@@](C)(C(F)(F)F)Oc4ccccc43)cccc21 [Example 165, 1-(1-methyl-2-oxo-1,2,3,4-tetrahydroquinazolin-5-yl)-3-[(2S,4R)-2-methyl-2-(trifluoromethyl)-3,4-dihydro-2H-chromen-4-yl]urea]	18	8.52
Cn1c(=O)ccc2c(NC(=O)N[C@@H]3CC(CF)(CF)Oc4c(F)cccc43)cccc21 [Example 95, 1-[(4R)-8-fluoro-2,2-bis(fluoromethyl)-3,4-dihydro-2H-chromen-4-yl]-3-(1-methyl-2-oxo-1,2-dihydroquinolin-5-yl)urea]	54	7.20
O=C1COc2ccc(NC(=O)N[C@@H]3CC4(CCCC4)Oc4ccccc43)cc2N1 [Example 124, 1-[(4R)-3,4-dihydrospiro[chromene-2,1′-cyclopentan]-4-yl]-3-(3-oxo-3,4-dihydro-2H-1,4-benzoxazin-6-yl)urea]	97	5.80
CCC1(CC)C[C@@H](NC(=O)Nc2cccc3c2CNC(=O)N3C)c2cccc(F)c2O1 [Example 139, 1-[(4R)-2,2-diethyl-8-fluoro-3,4-dihydro-2H-chromen-4-yl]-3-(1-methyl-2-oxo-1,2,3,4-tetrahydroquinazolin-5-yl)urea]	27	7.92
CCC1(CC)C[C@@H](NC(=O)Nc2ccc3c(c2)N(C)C(=O)CC3)c2ccc(Cl)c(Cl)c2O1 [Example 264, 1-[(4R)-7,8-dichloro-2,2-diethyl-3,4-dihydro-2H-chromen-4-yl]-3-(1-methyl-2-oxo-1,2,3,4-tetrahydroquinolin-7-yl)urea]	82	6.77
CN1C(=O)CCc2ccc(NC(=O)N[C@@H]3C[C@](C)(C(F)(F)F)Oc4ccccc43)cc21 [Example 326, 1-(1-methyl-2-oxo-1,2,3,4-tetrahydroquinolin-7-yl)-3-[(2R,4R)-2-methyl-2-(trifluoromethyl)-3,4-dihydro-2H-chromen-4-yl]urea]	80	7.49
CCC1(CC)C[C@@H](NC(=O)Nc2cccc3c2ccc(=O)n3C)c2ccc(Cl)cc2O1 [Example 70, 1-[(4R)-7-chloro-2,2-diethyl-3,4-dihydro-2H-chromen-4-yl]-3-(1-methyl-2-oxo-1,2-dihydroquinolin-5-yl)urea]	17	7.54
CN1C(=O)CCc2ccc(NC(=O)N[C@@H]3CC(C)(C)Oc4cc(C(F)(F)F)ccc43)cc21 [Example 265, 1-[(4R)-2,2-dimethyl-7-(trifluoromethyl)-3,4-dihydro-2H-chromen-4-yl]-3-(1-methyl-2-oxo-1,2,3,4-tetrahydroquinolin-7-yl)urea]	53	6.18
CN1C(=O)NCc2c(NC(=O)N[C@@H]3CC(C)(C)Oc4cc(OC(F)(F)F)ccc43)cccc21 [Example 137, 1-[(4R)-2,2-dimethyl-7-(trifluoromethoxy)-3,4-dihydro-2H-chromen-4-yl]-3-(1-methyl-2-oxo-1,2,3,4-tetrahydroquinazolin-5-yl)urea]	17	7.42
CN1C(=O)CCc2c(NC(=O)N[C@@H]3CC(CF)(CF)Oc4cc(Cl)ccc43)cccc21 [Example 254, 1-[(4R)-7-chloro-2,2-bis(fluoromethyl)-3,4-dihydro-2H-chromen-4-yl]-3-(1-methyl-2-oxo-1,2,3,4-tetrahydroquinolin-5-yl)urea]	73	6.89
Cn1c(=O)ccc2c(NC(=O)N[C@H]3CC4(CCC4)Oc4ccc(F)cc43)cccc21 [Example 88, 1-[(4S)-6-fluoro-3,4-dihydrospiro[chromene-2,1′-cyclobutan]-4-yl]-3-(1-methyl-2-oxo-1,2-dihydroquinolin-5-yl)urea]	51	5.60
CC1(C)C[C@@H](NC(=O)Nc2ccc3c(c2)NC(=O)N(CCO)C3)c2ccc(C(F)(F)F)nc2O1 [Example 62, 1-[(4R)-2,2-dimethyl-7-(trifluoromethyl)-3,4-dihydro-2H-pyrano[2,3-b]pyridin-4-yl]-3-[3-(2-hydroxyethyl)-2-oxo-1,2,3,4-tetrahydroquinazolin-7-yl]urea]	9	5.82
CCC1(CC)C[C@@H](NC(=O)Nc2ccc3c(c2)NC(=O)CC3)c2cc(F)ccc2O1 [Example 229, 1-[(4R)-2,2-diethyl-6-fluoro-3,4-dihydro-2H-chromen-4-yl]-3-(2-oxo-1,2,3,4-tetrahydroquinolin-7-yl)urea]	36	7.13
CN1C(=O)NCc2c(NC(=O)N[C@@H]3CC(C)(C(F)F)Oc4cc(Cl)ccc43)cccc21 (stereo partly drawn) [Example 136, 1-[(4R)-7-chloro-2-(difluoromethyl)-2-methyl-3,4-dihydro-2H-chromen-4-yl]-3-(1-methyl-2-oxo-1,2,3,4-tetrahydroquinazolin-5-yl)urea]	26	7.64
CN1Cc2ccc(NC(=O)N[C@H]3CC4(CCC4)Oc4ccc(F)cc43)cc2NC1=O [Example 203, 1-[(4S)-6-fluoro-3,4-dihydrospiro[chromene-2,1′-cyclobutan]-4-yl]-3-(3-methyl-2-oxo-1,2,3,4-tetrahydroquinazolin-7-yl)urea]	64	4.55
CC1(C)C[C@H](NC(=O)Nc2ccc3c(c2)NC(=O)N(CCO)C3)c2cc(F)ccc2O1 [Example 57, 1-[(4S)-6-fluoro-2,2-dimethyl-3,4-dihydro-2H-chromen-4-yl]-3-[3-(2-hydroxyethyl)-2-oxo-1,2,3,4-tetrahydroquinazolin-7-yl]urea]	43	6.42
CCCC1(CCC)C[C@@H](NC(=O)Nc2cccc3c2ccc(=O)n3C)c2cccc(F)c2O1 [Example 75, 1-[(4R)-8-fluoro-2,2-dipropyl-3,4-dihydro-2H-chromen-4-yl]-3-(1-methyl-2-oxo-1,2-dihydroquinolin-5-yl)urea]	50	7.62
Cn1c(=O)ccc2c(NC(=O)N[C@@H]3CCc4cc(C(C)(C)C)ccc43)cccc21 [Example 68, 1-[(1R)-5-tert-butyl-2,3-dihydro-1H-inden-1-yl]-3-(1-methyl-2-oxo-1,2-dihydroquinolin-5-yl)urea]	34	7.70
CN1C(=O)CCc2ccc(NC(=O)N[C@@H]3CC(C)(C)Oc4cc(Br)ccc43)cc21 [Example 297, 1-[(4R)-7-bromo-2,2-dimethyl-3,4-dihydro-2H-chromen-4-yl]-3-(1-methyl-2-oxo-1,2,3,4-tetrahydroquinolin-7-yl)urea]	67	6.89
CN1C(=O)NCc2c(NC(=O)N[C@@H]3CC(CF)(CF)Oc4cc(OC(F)(F)F)ccc43)cccc21 [Example 149, 1-[(4R)-2,2-bis(fluoromethyl)-7-(trifluoromethoxy)-3,4-dihydro-2H-chromen-4-yl]-3-(1-methyl-2-oxo-1,2,3,4-tetrahydroquinazolin-5-yl)urea]	16	6.92
